What was measured:
[1] = system: Bromodomains BRD2, BRD3, BRD4 and BRDT; assay: Binding of the fluoroligand to mutated versus non-mutated bromodomain; set-up: species or system Human; settings: single residue mutations in the acetyl lysine binding pocket
Protocol: Time Resolved Fluorescence Resonance Energy Transfer (TR-FRET) Assay Binding was assessed using a time resolved fluorescent resonance energy transfer binding assay. This utilises a 6 His purification tag at the N-terminal of the proteins as an epitope for an anti-6 His antibody labeled with Europium chelate (PerkinElmer AD0111) allowing binding of the Europium to the proteins which acts as the donor fluorophore. A small molecule, high affinity binder of the bromodomains BRD2, BRD3, BRD4 and BRDT has been labeled with Alexa Fluor647 (Reference Compound X) and this acts as the acceptor in the FRET pair.
The binding of the compounds of formula (I) to Bromodomains BRD2, BRD3, BRD4 and BRDT was assessed using mutated proteins to detect differential binding to either Binding Domain 1 (BD1) or Binding Domain 2 (BD2) on the bromodomain. These single residue mutations in the acetyl lysine binding pocket greatly lower the affinity of the fluoroligand (Reference Compound X) for the mutated domain (>1000 fold selective for the non-mutated domain). Therefore in the final assay conditions, binding of the fluoroligand to the mutated domain cannot be detected and subsequently the assay is suitable to determine the binding of compounds to the single non-mutated bromodomain. […]

BRD4 BD2 = target: T1, BRD4 BD2 (Homo sapiens, UniProt O60885, Y97A); assay: TR-FRET binding assay, BRD4 BD2 (BD1-mutated protein); settings: read-out: pIC50 in the BRD4 BD2 assay (converted)
T1 construct: BRD4 (1-477) (Y97A) and (Y390A); made in house; host or cells: E. coli (pET15b vector)
How it was run: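 Displacement of Alexa Fluor647-labelled bromodomain ligand (at Kd) from 10 nM His-tagged BRD4 (1-477, Y97A) read by Eu-anti-His TR-FRET (665/615 ratio) in pH 7.4 HEPES buffer, 0.5% DMSO. Compound preincubated 30 min at rt, detection ≥30 min. pIC50 derived from four-parameter fit after normalisation to controls.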

SMILES | IC50 (BRD4 BD2) [nM] | selectivity of the fluoroligand for the non-mutated domain over the mutated domain [1] [fold]
COc1ccc2c(c1)C(c1ccc(Cl)cc1)=N[C@@H](CC(=O)NCCCCCNC(=O)CCCCCC1(C)/C(=C/C=C/C=C/C3=[N+](CCCCS(=O)(=O)O)c4ccc(S(=O)(=O)O)cc4C3(C)C)N(CCCCS(=O)(=O)[O-])c3ccc(S(=O)(=O)O)cc31)c1nnc(C)n1-2 (stereo partly drawn) [Reference Compound X] |  | > 1000
CC[C@H]1[C@H](C)[C@@H](Nc2cnc(C)cn2)c2cc(N3CCNCC3)ccc2N1C(C)=O (racemic) [Example 218, rac-1-((2S,3R,4R)-2-ethyl-3-methyl-4-((5-methylpyrazin-2-yl)amino)-6-(piperazin-1-yl)-3,4-dihydroquinolin-1(2H)-yl)ethanone] | 1000 to 100000 | 
CC(=O)N1c2ccc(C(=O)NC3COC3)cc2[C@H](Nc2ncccn2)[C@@H](C)[C@@H]1C1CC1 [Example 488, (2S,3R,4R)-1-acetyl-2-cyclopropyl-3-methyl-N-(oxetan-3-yl)-4-(pyrimidin-2-ylamino)-1,2,3,4-tetrahydroquinoline-6-carboxamide] | 100 | 
COc1ccc(N[C@H]2c3ccccc3N(C(C)=O)[C@@H](C)[C@@H]2C)cc1 (racemic) [Example 15, rac-1-((2S,3R,4R)-4-((4-methoxyphenyl)amino)-2,3-dimethyl-3,4-dihydroquinolin-1(2H)-yl)ethanone] | 100 | 
CC(=O)N1c2ccccc2[C@H](Nc2ncccc2O)[C@@H](C)[C@@H]1C1CC1 (racemic) [Example 49, rac-1-((2S,3R,4R)-2-cyclopropyyl-4-((3-hydroxypyridin-2-yl)amino)-3-methyl-3,4-dihydroquinolin-1(2H)-yl)ethanone] | 1000 to 100000 | 
CC(=O)N1c2ccc(F)cc2[C@H](Nc2ncccn2)[C@@H](C)[C@@H]1C [Example 501, 1-((2S,3R,4R)-6-fluoro-2,3-dimethyl-4-(pyrimidin-2-ylamino)-3,4-dihydroquinolin-1(2H)-yl)ethanone] | 100 | 
CC(=O)N1c2ccc(N3CCN[C@@H](C)C3)cc2[C@H](Nc2cnc(C)cn2)[C@@H](C)[C@@H]1C1CC1 (racemic) [Example 227, 1-((rac-2S,3R,4R)-2-cyclopropyl-3-methyl-6-((S)-3-methylpiperazin-1-yl)-4-((5-methylpyrazin-2-yl)amino)-3,4-dihydroquinolin-1(2H)-yl)ethanone] | 1000 to 100000 | 
CC(=O)N1c2ccc(N3CCOCC3)cc2[C@H](Nc2ccc(C#N)cc2)[C@@H](C)[C@@H]1C [Example 197, 4-(((2S,3R,4R)-1-acetyl-2,3-dimethyl-6-morpholino-1,2,3,4-tetrahydroquinolin-4-yl)amino)benzonitrile] | 100 | 
CC(=O)N1c2ccc(C(=O)NCCO)cc2[C@H](Nc2ccc(F)cn2)[C@@H](C)[C@@H]1C [Example 479, (2S,3R,4R)-1-acetyl-4-((5-fluoropyridin-2-yl)amino)-N-(2-hydroxyethyl)-2,3-dimethyl-1,2,3,4-tetrahydroquinoline-6-carboxamide] | 100 | 
CC(=O)N1c2ccc(N3CCCC3C)cc2[C@H](Nc2ccccc2)[C@@H](C)[C@@H]1C (mixture of isomers) [Example 81, 1-((rac-2S,3R,4R)-2,3-dimethyl-6-(2-methylpyrrolidin-1-yl)-4-(phenylamino)-3,4-dihydroquinolin-1(2H)-yl)ethanone] | 100 | 
CC(=O)N1c2cccnc2[C@H](Nc2ccccc2)[C@@H](C)[C@@H]1C1CC1 (single isomer, unassigned) [Example 102b] | 1000 to 100000 | 
CC(=O)N1c2ccc(N3CCOCC3)cc2[C@H](Nc2ccccc2)[C@@H](C)[C@@H]1C (single isomer, unassigned) [Example 71a] | 1000 to 100000 | 
COCCNC(=O)c1ccc2c(c1)[C@H](Nc1ccc(F)cn1)[C@@H](C)[C@H](C1CC1)N2C(C)=O [Example 471, (2S,3R,4R)-1-acetyl-2-cyclopropyl-4-((5-fluoropyridin-2-yl)amino)-N-(2-methoxyethyl)-3-methyl-1,2,3,4-tetrahydroquinoline-6-carboxamide] | 100 | 
CC(=O)N1c2ccccc2[C@H](Nc2ccccc2)[C@@H](C)[C@@H]1CC(F)(F)F (racemic) [Example 53, rac-1-((2S,3R,4R)-3-methyl-4-(phenylamino)-2-(2,2,2-trifluoroethyl)-3,4-dihydroquinolin-1(2H)-yl)ethanone] | 1000 to 100000 | 
COCCn1cc(-c2ccc3c(c2)[C@H](Nc2nccc(C)n2)[C@@H](C)[C@H](C2CC2)N3C(C)=O)cn1 [Example 557, 1-((2S,3R,4R)-2-cyclopropyl-6-(1-(2-methoxyethyl)-1H-pyrazol-4-yl)-3-methyl-4-((4-methylpyrimidin-2-yl)amino)-3,4-dihydroquinolin-1(2H)-yl)ethanone] | 100 | 
CC[C@H]1[C@H](C)[C@@H](Nc2ccc(C#N)cc2)c2cc(C(=O)O)ccc2N1C(C)=O [Example 331, (2S,3R,4R)-1-acetyl-4-((4-cyanophenyl)amino)-2-ethyl-3-methyl-1,2,3,4-tetrahydroquinoline-6-carboxylic acid] | 100 | 
CC(=O)N1c2ccc(N3CCNCC3)nc2[C@H](Nc2ccccc2)[C@@H](C)[C@@H]1C1CC1 (racemic) [Example 108, rac-1-((2S,3R,4R)-2-cyclopropyl-3-methyl-4-(phenylamino)-6-(piperazin-1-yl)-3,4-dihydro-1,5-naphthyridin-1(2H)-yl)ethanone] | 1000 to 100000 | 
COc1cc2c(cc1C(N)=O)[C@H](Nc1nccc(C)n1)[C@@H](C)[C@H](C1CC1)N2C(C)=O (racemic) [Example 593, rac-(2S,3R,4R)-1-acetyl-2-cyclopropyl-7-methoxy-3-methyl-4-((4-methylpyrimidin-2-yl)amino)-1,2,3,4-tetrahydroquinoline-6-carboxamide] | 1000 to 100000 | 
CC(=O)N1c2ccc(F)cc2[C@H](Nc2ccc(F)cn2)[C@@H](C)[C@@H]1C (racemic) [Example 141, rac-1-((2S,3R,4R)-6-fluoro-4-((5-fluoropyridin-2-yl)amino)-2,3-dimethyl-3,4-dihydroquinolin-1(2H)-yl)ethanone] | 100 | 

More lines, main results first:

IC50 (BRD4 BD2) [nM] | SMILES | selectivity of the fluoroligand for the non-mutated domain over the mutated domain [1] [fold]
100 | CC(=O)N1c2ccc(C#N)cc2[C@H](Nc2ncccc2C(N)=O)[C@@H](C)[C@@H]1C1CC1 [Example 314, 2-(((2S,3R,4R)-1-acetyl-6-cyano-2-cyclopropyl-3-methyl-1,2,3,4-tetrahydroquinolin-4-yl)amino)nicotinamide] | 
1000 to 100000 | CC(=O)N1c2ccc(C#N)cc2[C@H](Nc2cccc(C(N)=O)n2)[C@@H](C)[C@@H]1C1CC1 [Example 316, 6-(((2S,3R,4R)-1-acetyl-6-cyano-2-cyclopropyl-3-methyl-1,2,3,4-tetrahydroquinolin-4-yl)amino)picolinamide] | 
100 | COCCn1cc(-c2ccc3c(c2)[C@H](Nc2cccc(C)n2)[C@@H](C)[C@H](C2CC2)N3C(C)=O)cn1 (single isomer, unassigned) [Example 136a] | 
1000 to 100000 | CC(=O)N1c2ccccc2[C@@H](Nc2cccc(C)n2)[C@H](C)[C@H]1C1CC1 (single isomer, unassigned) [Example 29b] | 
1000 to 100000 | CC(=O)N1c2ccccc2[C@H](Nc2cncc(C)n2)[C@@H](C)[C@@H]1C1CC1 (racemic) [Example 48, rac-1-((2S,3R,4R)-2-cyclopropyl-3-methyl-4-((6-methylpyrazin-2-yl)amino)-3,4-dihydroquinolin-1(2H)-yl)ethanone] | 
100 | CC(=O)N1c2ccc(C3=CCOCC3)cc2[C@@H](Nc2ccccn2)[C@H](C)[C@H]1C1CC1 (racemic) [Example 92, rac-1-((2S,3R,4R)-2-cyclopropyl-6-(3,6-dihydro-2H-pyran-4-yl)-3-methyl-4-(pyridin-2-ylamino)-3,4-dihydroquinolin-1(2H)-yl)ethanone] | 
1000 to 100000 | CNC(=O)c1ccc2c(c1)[C@@H](Nc1cccc(C)n1)[C@H](C)[C@@H](C1CC1)N2C(C)=O (single isomer, unassigned) [Example 239b] | 
1000 to 100000 | CC(=O)N1c2ccc(S(C)(=O)=O)cc2[C@H](Nc2cccc(C)n2)[C@@H](C)[C@@H]1C1CC1 (racemic) [Example 67, rac-1-((2S,3R,4R)-2-cyclopropyl-3-methyl-4-((6-methylpyridin-2-yl)amino)-6-(methylsulfonyl)-3,4-dihydroquinolin-1(2H)-yl)ethanone] | 
